{
  "source": "paper PMC10415494",
  "about": "“Ga(III) pyridinecarboxylate complexes: potential analogues of the second generation of therapeutic Ga(III) complexes?” (Journal of Biological Inorganic Chemistry, 2023)",
  "test_system": "any model microorganism",
  "assay": "Antimicrobial activity, macrodilution method, all model microorganisms together",
  "assay_type": "cell-based",
  "conditions": "free ligands, range 0.5–2.0 mM",
  "experimental": "Cultures of bacteria (in Mueller–Hinton broth, MHB) and yeasts (in Sabouraud’s growth medium, SB) were incubated under shaking (250 rpm) at 37 °C. The growth of bacteria and yeasts was evaluated by measuring the absorbance of the growing cultures (A590) until the cultures reached the stationary growth phase. The effects of gallium(III) complexes on the growth of filamentous fungi Rhizopus oryzae (R. oryzae) CCM F-8284, Alternaria alternata (A. alternata) CCM F-128 and Microsporum gypseum (M. gypseum) CCM F-8342 (Czech Collection of Microorganisms) were observed by macrodilution method on solidified potato-dextrose growth medium (PDA). During culturing, the diameters of growing fungal colonies were measured at regular intervals. Briefly, the antimicrobial activity (bacteria and yeasts) gallium(III) complexes/ ligands were added to the microbial culture at the beginning of the cultivation-to the lag phase. Pure gallium(III) complexes/ligands were dissolved in DMSO. The final concentration of DMSO never exceeded 1.0 vol. % neither in control nor treated samples. Concentration of gallium(III) complexes used in experimental work for evaluation of antimicrobial activity was used in the range of 0.05–2 mM, for the free ligands in the range of 0.5–2.0 mM in all experiments. […] The IC50 values were evaluated from toxicity curves. All the obtained results of antimicrobial activity were compared to the activity of Ga(NO3)3.",
  "data": [
    {"smiles": "O=C(O)c1ccccn1", "note": "[HPic, picolinic acid]", "values": [
      {"measurement": "effect on the growth of any model microorganism", "value": "did not affect the growth"}
    ]}
  ]
}
